Measurements as given in PMC12196347, “Evaluating Triazole-Substituted Pyrrolopyrimidines as CSF1R Inhibitors” (Molecules, 2025).
≈ marks a conversion by molar mass, not a printed value. Like-named read-outs stand apart in the source and are kept apart here.

Assays:
[1] = Kinetic solubility, spectrophotometric; assay type: physicochemical; details: aqueous buffer, kinetic from dmso stock, spectrophotometrically at pH 7.4 in HEPES buffer
DYRK1A = molecular target: T1, DYRK1A (Homo sapiens, UniProt Q13627); assay: Kinase panel profiling: DYRK1A; assay type: biochemical; details: ATP equal to KM
T1 construct: purchased Thermo Fisher Scientific (Invitrogen) SelectScreen (Z'-LYTE)

FLT1 (VEGFR1) = molecular target: T2, FLT1 (VEGFR1) (Homo sapiens, UniProt P17948); assay: Kinase panel profiling: FLT1; assay type: biochemical; details: ATP equal to KM
T2 construct: purchased Thermo Fisher Scientific (Invitrogen) SelectScreen (Z'-LYTE)

FLT3 = molecular target: T3, FLT3 (Homo sapiens, UniProt P36888); assay: Kinase panel profiling: FLT3; assay type: biochemical; details: ATP equal to KM
T3 construct: purchased Thermo Fisher Scientific (Invitrogen) SelectScreen (Z'-LYTE)
T3 sequence (P36888 27-993): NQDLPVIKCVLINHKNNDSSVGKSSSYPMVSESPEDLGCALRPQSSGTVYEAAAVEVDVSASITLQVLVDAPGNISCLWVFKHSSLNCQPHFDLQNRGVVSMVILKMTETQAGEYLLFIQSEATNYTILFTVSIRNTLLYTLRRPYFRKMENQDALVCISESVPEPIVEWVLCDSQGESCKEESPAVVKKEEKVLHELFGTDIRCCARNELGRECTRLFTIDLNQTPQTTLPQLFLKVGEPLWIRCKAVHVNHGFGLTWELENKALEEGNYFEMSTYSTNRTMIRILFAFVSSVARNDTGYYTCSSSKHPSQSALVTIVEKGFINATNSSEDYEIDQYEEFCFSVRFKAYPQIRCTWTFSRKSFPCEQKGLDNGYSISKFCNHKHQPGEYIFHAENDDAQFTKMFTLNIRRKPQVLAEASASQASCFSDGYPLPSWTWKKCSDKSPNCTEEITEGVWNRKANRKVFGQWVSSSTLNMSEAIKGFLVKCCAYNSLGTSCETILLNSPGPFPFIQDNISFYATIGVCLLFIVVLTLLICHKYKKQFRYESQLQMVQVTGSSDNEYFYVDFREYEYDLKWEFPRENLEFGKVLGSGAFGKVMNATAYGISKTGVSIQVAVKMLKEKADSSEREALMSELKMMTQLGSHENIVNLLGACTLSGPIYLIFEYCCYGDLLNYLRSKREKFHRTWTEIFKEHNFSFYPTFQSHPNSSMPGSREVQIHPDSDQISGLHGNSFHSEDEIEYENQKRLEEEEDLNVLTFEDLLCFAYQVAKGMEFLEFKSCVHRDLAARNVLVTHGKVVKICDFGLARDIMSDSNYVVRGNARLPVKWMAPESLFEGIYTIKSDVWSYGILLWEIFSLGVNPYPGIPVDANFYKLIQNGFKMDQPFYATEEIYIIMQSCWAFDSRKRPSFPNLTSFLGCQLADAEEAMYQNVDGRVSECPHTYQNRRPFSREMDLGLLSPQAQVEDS

GSK3B (GSK3 beta) = molecular target: T4, GSK3B (GSK3 beta) (Homo sapiens, UniProt P49841); assay: Kinase panel profiling: GSK3B; assay type: biochemical; details: ATP equal to KM
T4 construct: purchased Thermo Fisher Scientific (Invitrogen) SelectScreen (Z'-LYTE)

KIT = molecular target: T5, KIT (Homo sapiens, UniProt P10721); assay: Kinase panel profiling: KIT; assay type: biochemical; details: ATP equal to KM
T5 construct: purchased Thermo Fisher Scientific (Invitrogen) SelectScreen (Z'-LYTE)

LYN B = molecular target: T6, LYN B (Homo sapiens, UniProt P07948); assay: Kinase panel profiling: LYN B; assay type: biochemical; details: ATP equal to KM
T6 construct: purchased Thermo Fisher Scientific (Invitrogen) SelectScreen (Z'-LYTE)

MUSK = molecular target: T7, MUSK (Homo sapiens, UniProt O15146); assay: Kinase panel profiling: MUSK; assay type: biochemical; details: ATP equal to KM
T7 construct: purchased Thermo Fisher Scientific (Invitrogen) SelectScreen (Z'-LYTE)
T7 sequence (O15146 24-869): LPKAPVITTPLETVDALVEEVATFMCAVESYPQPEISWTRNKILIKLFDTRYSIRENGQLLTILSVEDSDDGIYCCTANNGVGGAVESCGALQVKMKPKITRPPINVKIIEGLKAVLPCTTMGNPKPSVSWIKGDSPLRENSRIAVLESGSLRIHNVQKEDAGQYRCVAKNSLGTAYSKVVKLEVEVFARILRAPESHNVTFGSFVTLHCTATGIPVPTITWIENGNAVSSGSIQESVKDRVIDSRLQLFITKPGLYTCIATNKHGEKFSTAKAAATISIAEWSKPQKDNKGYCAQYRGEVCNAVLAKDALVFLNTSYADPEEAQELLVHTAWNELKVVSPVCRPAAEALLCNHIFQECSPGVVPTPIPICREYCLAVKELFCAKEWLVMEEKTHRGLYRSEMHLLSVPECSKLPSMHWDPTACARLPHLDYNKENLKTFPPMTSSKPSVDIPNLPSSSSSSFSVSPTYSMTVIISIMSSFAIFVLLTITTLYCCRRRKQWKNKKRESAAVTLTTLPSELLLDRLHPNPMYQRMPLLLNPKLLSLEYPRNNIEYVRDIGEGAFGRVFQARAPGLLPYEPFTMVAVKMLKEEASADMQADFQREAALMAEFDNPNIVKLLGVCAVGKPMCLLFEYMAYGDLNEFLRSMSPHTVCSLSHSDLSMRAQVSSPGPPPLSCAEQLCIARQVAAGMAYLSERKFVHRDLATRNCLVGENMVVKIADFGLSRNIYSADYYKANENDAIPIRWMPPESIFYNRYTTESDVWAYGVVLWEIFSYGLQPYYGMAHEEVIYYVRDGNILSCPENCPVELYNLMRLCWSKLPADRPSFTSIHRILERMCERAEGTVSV

YES1 = YES1 (Homo sapiens, UniProt P07947); assay: Kinase panel profiling: YES1; assay type: biochemical; details: ATP equal to KM
[2] = 1000 nM test concentration, read-out: Average inhibition (%)
[3] = 1000 nM, first data point, read-out: Inhibition (%)
[4] = 1000 nM, second data point, read-out: Inhibition (%)

T5 sequence (P10721 26-976): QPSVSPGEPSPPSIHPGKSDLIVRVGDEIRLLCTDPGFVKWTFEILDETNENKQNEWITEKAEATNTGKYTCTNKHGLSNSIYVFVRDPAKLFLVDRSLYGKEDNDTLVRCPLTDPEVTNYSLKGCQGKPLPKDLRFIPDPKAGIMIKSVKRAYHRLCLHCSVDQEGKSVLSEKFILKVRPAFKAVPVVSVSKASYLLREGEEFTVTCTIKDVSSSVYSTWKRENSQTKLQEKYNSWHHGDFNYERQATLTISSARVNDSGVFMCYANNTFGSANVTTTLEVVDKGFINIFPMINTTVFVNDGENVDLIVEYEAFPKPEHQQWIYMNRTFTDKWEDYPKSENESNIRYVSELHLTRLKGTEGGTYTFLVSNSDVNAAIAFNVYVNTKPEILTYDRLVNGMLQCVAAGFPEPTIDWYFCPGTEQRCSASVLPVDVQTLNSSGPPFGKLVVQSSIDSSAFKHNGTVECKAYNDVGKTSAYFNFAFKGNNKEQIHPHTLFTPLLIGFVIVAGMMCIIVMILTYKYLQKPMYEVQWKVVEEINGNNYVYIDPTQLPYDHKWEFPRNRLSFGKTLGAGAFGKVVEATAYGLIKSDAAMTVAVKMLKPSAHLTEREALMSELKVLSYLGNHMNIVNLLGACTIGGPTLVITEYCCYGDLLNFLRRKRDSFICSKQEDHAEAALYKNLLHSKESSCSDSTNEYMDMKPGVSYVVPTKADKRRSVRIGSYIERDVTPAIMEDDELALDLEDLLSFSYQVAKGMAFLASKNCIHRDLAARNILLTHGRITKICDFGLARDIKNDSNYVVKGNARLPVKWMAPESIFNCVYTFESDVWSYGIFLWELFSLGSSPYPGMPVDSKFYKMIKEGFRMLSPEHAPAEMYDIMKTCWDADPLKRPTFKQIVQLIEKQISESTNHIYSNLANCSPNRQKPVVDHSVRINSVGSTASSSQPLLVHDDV
Chain of YES1 (P07947 whole entry): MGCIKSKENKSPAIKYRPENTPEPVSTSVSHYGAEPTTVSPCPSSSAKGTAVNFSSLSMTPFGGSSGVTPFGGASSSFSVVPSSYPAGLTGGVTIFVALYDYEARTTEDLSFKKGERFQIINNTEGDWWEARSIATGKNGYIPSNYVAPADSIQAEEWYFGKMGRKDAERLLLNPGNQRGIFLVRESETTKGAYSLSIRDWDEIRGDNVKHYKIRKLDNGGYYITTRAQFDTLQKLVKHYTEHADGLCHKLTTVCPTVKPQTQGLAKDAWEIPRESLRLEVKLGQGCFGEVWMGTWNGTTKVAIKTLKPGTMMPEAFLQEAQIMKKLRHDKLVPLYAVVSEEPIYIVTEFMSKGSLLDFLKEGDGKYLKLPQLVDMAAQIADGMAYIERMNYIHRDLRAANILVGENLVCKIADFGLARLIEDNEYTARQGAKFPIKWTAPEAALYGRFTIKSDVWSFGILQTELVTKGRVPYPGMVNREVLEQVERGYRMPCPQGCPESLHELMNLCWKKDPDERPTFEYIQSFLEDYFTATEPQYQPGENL
T6 sequence (P07948 1-491 isoform P07948-2): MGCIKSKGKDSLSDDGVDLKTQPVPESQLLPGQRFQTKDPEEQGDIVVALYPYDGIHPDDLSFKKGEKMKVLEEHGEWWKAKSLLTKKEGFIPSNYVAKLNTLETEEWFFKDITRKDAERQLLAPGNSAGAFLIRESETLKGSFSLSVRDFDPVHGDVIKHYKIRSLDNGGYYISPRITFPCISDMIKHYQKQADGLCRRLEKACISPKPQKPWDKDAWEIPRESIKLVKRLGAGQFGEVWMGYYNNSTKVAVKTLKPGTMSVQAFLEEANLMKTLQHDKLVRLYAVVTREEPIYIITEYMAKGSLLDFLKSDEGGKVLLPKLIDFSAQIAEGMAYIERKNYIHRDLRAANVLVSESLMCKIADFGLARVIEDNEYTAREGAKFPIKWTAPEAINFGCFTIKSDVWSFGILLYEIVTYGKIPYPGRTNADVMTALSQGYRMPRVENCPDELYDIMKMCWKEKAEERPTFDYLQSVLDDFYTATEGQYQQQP
T2 sequence (P17948 27-1338): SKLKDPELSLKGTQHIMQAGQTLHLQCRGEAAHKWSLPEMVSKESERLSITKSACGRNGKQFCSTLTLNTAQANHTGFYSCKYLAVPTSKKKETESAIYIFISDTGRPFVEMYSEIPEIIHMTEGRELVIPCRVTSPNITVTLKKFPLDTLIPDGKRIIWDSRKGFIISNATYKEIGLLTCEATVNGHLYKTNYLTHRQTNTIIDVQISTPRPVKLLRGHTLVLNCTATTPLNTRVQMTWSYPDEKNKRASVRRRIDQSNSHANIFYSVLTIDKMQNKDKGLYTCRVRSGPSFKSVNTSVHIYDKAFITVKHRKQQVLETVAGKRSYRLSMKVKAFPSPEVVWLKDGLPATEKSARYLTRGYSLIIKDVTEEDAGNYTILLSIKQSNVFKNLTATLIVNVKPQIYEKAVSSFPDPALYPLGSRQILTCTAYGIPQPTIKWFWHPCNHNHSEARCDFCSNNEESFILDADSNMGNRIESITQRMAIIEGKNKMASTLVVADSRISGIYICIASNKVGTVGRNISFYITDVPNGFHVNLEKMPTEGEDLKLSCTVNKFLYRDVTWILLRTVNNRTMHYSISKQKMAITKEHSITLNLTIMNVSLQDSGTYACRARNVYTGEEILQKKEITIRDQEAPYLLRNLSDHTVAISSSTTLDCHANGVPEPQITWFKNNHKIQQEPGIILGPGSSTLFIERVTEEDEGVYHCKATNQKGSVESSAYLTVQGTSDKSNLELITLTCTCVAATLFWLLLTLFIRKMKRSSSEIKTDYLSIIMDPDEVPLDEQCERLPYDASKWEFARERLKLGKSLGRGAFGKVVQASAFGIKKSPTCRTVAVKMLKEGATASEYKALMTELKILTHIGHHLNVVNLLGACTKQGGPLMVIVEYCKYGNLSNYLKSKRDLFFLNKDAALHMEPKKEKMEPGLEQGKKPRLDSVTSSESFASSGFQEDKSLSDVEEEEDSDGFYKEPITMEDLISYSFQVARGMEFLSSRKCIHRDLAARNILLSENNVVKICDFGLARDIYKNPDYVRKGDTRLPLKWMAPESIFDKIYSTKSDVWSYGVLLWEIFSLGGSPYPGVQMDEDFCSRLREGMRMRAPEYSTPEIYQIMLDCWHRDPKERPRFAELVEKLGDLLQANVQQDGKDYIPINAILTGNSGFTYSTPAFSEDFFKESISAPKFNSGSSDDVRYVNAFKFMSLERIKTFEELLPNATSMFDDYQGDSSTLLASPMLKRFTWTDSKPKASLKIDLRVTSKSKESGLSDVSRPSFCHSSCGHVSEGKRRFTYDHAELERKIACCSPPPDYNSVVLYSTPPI
T4 sequence (P49841 whole entry): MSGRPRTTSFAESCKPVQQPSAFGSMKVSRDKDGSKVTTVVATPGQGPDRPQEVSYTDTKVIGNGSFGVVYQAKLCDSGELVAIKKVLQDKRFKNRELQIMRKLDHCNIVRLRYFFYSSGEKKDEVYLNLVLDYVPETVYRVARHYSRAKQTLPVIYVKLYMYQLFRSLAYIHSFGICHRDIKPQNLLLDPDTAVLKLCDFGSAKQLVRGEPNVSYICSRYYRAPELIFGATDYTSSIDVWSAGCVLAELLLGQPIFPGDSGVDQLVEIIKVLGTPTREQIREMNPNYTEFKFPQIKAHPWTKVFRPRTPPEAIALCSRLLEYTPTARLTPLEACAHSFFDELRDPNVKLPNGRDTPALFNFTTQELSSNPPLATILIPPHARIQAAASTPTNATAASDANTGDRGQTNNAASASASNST

solubility kinetic [1]: 3.1 µM (≈ 1.27 µg/mL) | inhibition at 1 µM (DYRK1A; [2]): 5% | inhibition at 1 µM (DYRK1A; [3]): 5% | inhibition at 1 µM (DYRK1A; [4]): 4% | inhibition at 1 µM (FLT1 (VEGFR1); [2]): 31% | inhibition at 1 µM (FLT1 (VEGFR1); [3]): 32% | inhibition at 1 µM (FLT1 (VEGFR1); [4]): 30% | inhibition at 1 µM (FLT3; [2]): 44% | inhibition at 1 µM (FLT3; [3]): 42% | inhibition at 1 µM (FLT3; [4]): 45% | inhibition at 1 µM (GSK3B (GSK3 beta); [2]): 61% | inhibition at 1 µM (GSK3B (GSK3 beta); [3]): 59% | inhibition at 1 µM (GSK3B (GSK3 beta); [4]): 62% | inhibition at 1 µM (KIT; [2]): 57% | inhibition at 1 µM (KIT; [3]): 56% | inhibition at 1 µM (KIT; [4]): 58% | inhibition at 1 µM (LYN B; [2]): 76% | inhibition at 1 µM (LYN B; [3]): 74% | inhibition at 1 µM (LYN B; [4]): 79% | inhibition at 1 µM (MUSK; [2]): 72% | inhibition at 1 µM (MUSK; [3]): 73% | inhibition at 1 µM (MUSK; [4]): 72% | inhibition at 1 µM (YES1; [2]): 101% | inhibition at 1 µM (YES1; [3]): 102% | inhibition at 1 µM (YES1; [4]): 99%
SMILES: Cc1cccc(CN(C)c2ncnc3[nH]c(-c4cn(Cc5cccnc5)nn4)cc23)c1 [Compound 27a, N-Methyl-N-(3-methylbenzyl)-6-(1-(pyridin-3-ylmethyl)-1H-1,2,3-triazol-4-yl)-7H-pyrrolo[2,3-d]pyrimidin-4-amine]
